# In US12077503B2, “Substituted cyclic amides and their use as herbicides” (FMC CORPORATION, priority 2015, dated 2024):
# Experiments:
# Type in all cases: in vivo
# [1] = system: johnsongrass (Sorghum halepense); test: Test C preemergence; settings: for Plant response rating, Johnsongrass: scale 0 to 100, 0 no effect, 100 complete control
# From the text: Seeds of plant species selected from blackgrass (Alopecurus myosuroides), ryegrass, Italian (Italian ryegrass, Lolium multiflorum), wheat (winter wheat, Triticum aestivum), Galium (catchweed bedstraw, Galium aparine), corn (Zea mays), crabgrass, large (large crabgrass, Digitaria sanguinalis), foxtail, giant (giant foxtail, Setaria faberii), johnsongrass (Sorghum halepense), lambsquarters (Chenopodium album), morningglory (Ipomoea coccinea), nutsedge, yellow (yellow nutsedge, Cyperus esculentus), pigweed (Amaranthus retroflexus), ragweed (common ragweed, Ambrosia elatior), soybean (Glycine max), barnyardgrass (Echinochloa crus-galli), oilseed rape (Brassica napus), waterhemp (common waterhemp, Amaranthus rudis) and velvetleaf (Abutilon theophrasti) were planted into a blend of loam soil and sand and treated preemergence with test chemicals formulated in a non-phytotoxic solvent mixture which included a surfactant.
# At the same time, plants selected from these crop and weed species and also Kochia (Kochia scoparia), oat, wild (wild oat, Avena fatua), and chickweed (common chickweed, Stellaria media) were planted in pots containing Sunshine Redi-Earth® planting medium comprising spaghnum peat moss, vermiculite, starter nutrients and dolomitic limestone and treated with postemergence applications of test chemicals formulated in the same manner. Plants ranged in height from 2 to 18 cm (1- to 4-leaf stage) for postemergence treatments. Treated plants and controls were maintained in a greenhouse for 13 to 15 d, after which time all species were compared to controls and visually evaluated. Plant response ratings, summarized in Table C, are based on a scale of 0 to 100 where 0 is no effect and 100 is complete control. A dash (-) response means no test result.
# [2] = system: ragweed (common ragweed, Ambrosia elatior); test: Test A postemergence; settings: for Ragweed plant response rating: 125 g ai/ha, visual injury rating on 0 to 100 scale (0 no effect, 100 complete control), approx. 10 d; for Plant response rating, Ragweed: 500 g ai/ha
# Outline: (§1)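 Treatment is preemergence as a directed soil spray after planting, or postemergence at the one- to two-leaf stage, with test chemical in a non-phytotoxic solvent mixture plus surfactant. Plants stay in the greenhouse about 10 d before visual injury scoring on a 0 to 100 scale versus untreated controls.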
# [3] = system: barnyardgrass (Echinochloa crus-galli); test: Test A postemergence; settings: for Barnyardgrass plant response rating: 125 g ai/ha, visual injury rating on 0 to 100 scale (0 no effect, 100 complete control), approx. 10 d; for Plant response rating, Barnyardgrass: 500 g ai/ha
# Outline: as §1
# [4] = system: pigweed (Amaranthus retroflexus); test: Test A postemergence; settings: for Pigweed plant response rating: 125 g ai/ha, visual injury rating on 0 to 100 scale (0 no effect, 100 complete control), approx. 10 d; for Plant response rating, Pigweed: 500 g ai/ha
# Outline: as §1
# Kochia (Kochia scoparia) [5] = test: Test A postemergence; settings: for Kochia plant response rating: 125 g ai/ha, visual injury rating on 0 to 100 scale (0 no effect, 100 complete control), approx. 10 d; for Plant response rating, Kochia: 500 g ai/ha
# Outline: as §1
# [6] = system: Galium (catchweed bedstraw, Galium aparine); test: Test A postemergence; settings: for Galium plant response rating: 125 g ai/ha, visual injury rating on 0 to 100 scale (0 no effect, 100 complete control), approx. 10 d; for Plant response rating, Galium: 500 g ai/ha
# Outline: as §1
# [7] = system: giant foxtail (Setaria faberii); test: Test A postemergence; settings: for Foxtail, Giant plant response rating: 125 g ai/ha, visual injury rating on 0 to 100 scale (0 no effect, 100 complete control), approx. 10 d; for Plant response rating, Foxtail, Giant: 500 g ai/ha
# Outline: as §1
# [8] = system: ryegrass, Italian (Italian ryegrass, Lolium multiflorum); test: Test A postemergence; settings: for Ryegrass, Italian plant response rating: 125 g ai/ha, visual injury rating on 0 to 100 scale (0 no effect, 100 complete control), approx. 10 d; for Plant response rating, Ryegrass, Italian: 500 g ai/ha
# Outline: as §1
# corn (Zea mays) = test: Test A postemergence; settings: for Corn plant response rating: 125 g ai/ha, visual injury rating on 0 to 100 scale (0 no effect, 100 complete control), approx. 10 d; for Plant response rating, Corn: 500 g ai/ha
# Outline: as §1
# [9] = system: wheat (Triticum aestivum); test: Test A postemergence; settings: for Wheat plant response rating: 125 g ai/ha, visual injury rating on 0 to 100 scale (0 no effect, 100 complete control), approx. 10 d; for Plant response rating, Wheat: 500 g ai/ha
# Outline: as §1
# [10] = system: blackgrass (Alopecurus myosuroides); test: Test A postemergence; settings: for Blackgrass plant response rating: 125 g ai/ha, visual injury rating on 0 to 100 scale (0 no effect, 100 complete control), approx. 10 d; for Plant response rating, Blackgrass: 500 g ai/ha
# Outline: as §1
# [11] = system: ragweed (common ragweed, Ambrosia elatior); test: Test A preemergence; settings: for Plant response rating, Ragweed: 125 g ai/ha; for Ragweed plant response rating (0 to 100 scale, 0 is no effect, 100 is complete control): 500 g ai/ha, visual injury approx. 10 d
# Outline: as §1
# [12] = system: barnyardgrass (Echinochloa crus-galli); test: Test A preemergence; settings: for Plant response rating, Barnyardgrass: 125 g ai/ha; for Barnyardgrass plant response rating (0 to 100 scale, 0 is no effect, 100 is complete control): 500 g ai/ha, visual injury approx. 10 d
# Outline: as §1
# [13] = system: pigweed (Amaranthus retroflexus); test: Test A preemergence; settings: for Plant response rating, Pigweed: 125 g ai/ha; for Pigweed plant response rating (0 to 100 scale, 0 is no effect, 100 is complete control): 500 g ai/ha, visual injury approx. 10 d
# Kochia (Kochia scoparia) [14] = test: Test A preemergence; settings: for Plant response rating, Kochia: 125 g ai/ha; for Kochia plant response rating (0 to 100 scale, 0 is no effect, 100 is complete control): 500 g ai/ha, visual injury approx. 10 d
# Outline: as §1
# [15] = system: giant foxtail (Setaria faberii); test: Test A preemergence; settings: for Plant response rating, Foxtail, Giant: 125 g ai/ha; for Foxtail, Giant plant response rating (0 to 100 scale, 0 is no effect, 100 is complete control): 500 g ai/ha, visual injury approx. 10 d
# Outline: as §1
# [16] = system: ryegrass, Italian (Italian ryegrass, Lolium multiflorum); test: Test A preemergence; settings: for Plant response rating, Ryegrass, Italian: 125 g ai/ha; for Ryegrass, Italian plant response rating (0 to 100 scale, 0 is no effect, 100 is complete control): 500 g ai/ha, visual injury approx. 10 d
# Outline: as §1
# [17] = system: barnyardgrass (Echinochloa crus-galli); test: Test B flooded paddy test; settings: Flood, 250 g ai/ha; 0 to 100 scale where 0 is no effect and 100 is complete control; 13 to 15 d
# Outline: (§2)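 Rating scale 0–100 (visual, vs untreated controls) after a 13–15 d greenhouse period; application to the flood layer, 3 cm above soil and maintained; plants at 2-leaf stage when treated.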
# [18] = system: sedge, umbrella (small-flower umbrella sedge, Cyperus difformis); test: Test B flooded paddy test; settings: Flood, 250 g ai/ha; 0 to 100 scale where 0 is no effect and 100 is complete control; 13 to 15 d
# Outline: as §2
# [19] = system: ducksalad (Heteranthera limosa); test: Test B flooded paddy test; settings: Flood, 250 g ai/ha; 0 to 100 scale where 0 is no effect and 100 is complete control; 13 to 15 d
# Outline: as §2
# rice (Oryra sativa) = test: Test B flooded paddy test; settings: Flood, 250 g ai/ha; 0 to 100 scale where 0 is no effect and 100 is complete control; 13 to 15 d
# Outline: as §2
# [20] = postemergence, 0 to 100 scale, 0 no effect, 100 complete control
# [21] = preemergence, 0 to 100 scale (0 no effect, 100 complete control)
# [22] = Postemergence, 0 to 100 scale where 0 is no effect and 100 is complete control
# [23] = Preemergence, visual injury after approximately 10 d, 0 to 100 scale where 0 is no effect and 100 is complete control
SMILES,"Plant response rating, Johnsongrass ([1]; 62 g ai/ha)","Plant response rating, Johnsongrass ([1]; 125 g ai/ha)","Plant response rating, Johnsongrass ([1]; 250 g ai/ha)",Ragweed plant response rating ([2]; postemergence),Barnyardgrass plant response rating ([3]; postemergence),Pigweed plant response rating ([4]; postemergence),Kochia plant response rating (Kochia (Kochia scoparia) [5]; postemergence),Galium plant response rating ([6]; postemergence),"Foxtail, Giant plant response rating ([7]; postemergence)","Ryegrass, Italian plant response rating ([8]; postemergence)",Corn plant response rating (corn (Zea mays); postemergence),Wheat plant response rating ([9]; postemergence),Blackgrass plant response rating ([10]; postemergence),"Barnyardgrass plant response rating (0 to 100 scale, 0 is no effect, 100 is complete control) ([12]; Preemergence)","Pigweed plant response rating (0 to 100 scale, 0 is no effect, 100 is complete control) ([13]; Preemergence)","Kochia plant response rating (0 to 100 scale, 0 is no effect, 100 is complete control) (Kochia (Kochia scoparia) [14]; Preemergence)","Foxtail, Giant plant response rating (0 to 100 scale, 0 is no effect, 100 is complete control) ([15]; Preemergence)","Ryegrass, Italian plant response rating (0 to 100 scale, 0 is no effect, 100 is complete control) ([16]; Preemergence)","Plant response rating, Barnyardgrass [17]","Plant response rating, Sedge, Umbrella [18]",other results
CN1CC(c2ccc(C(F)(F)F)cc2)C(C(=S)Nc2ccccc2F)C1=O (centres unmarked) [Compound 450],0,20,50,20,80,50,20,50,80,0,20,0,20,90,80,80,90,40,45,0,"Plant response rating, Johnsongrass ([1]; 31 g ai/ha): 0; Plant response rating, Ragweed [2, 20]: 30; Plant response rating, Barnyardgrass [3, 20]: 90; Plant response rating, Pigweed [4, 20]: 60; Plant response rating, Kochia (Kochia (Kochia scoparia) [5]; [20]): 50; Plant response rating, Galium [6, 20]: 60; Plant response rating, Foxtail, Giant [7, 20]: 80; Plant response rating, Ryegrass, Italian [8, 20]: 50; Plant response rating, Corn (corn (Zea mays); [20]): 60; Plant response rating, Wheat [9, 20]: 30; Plant response rating, Blackgrass [10, 20]: 40; Plant response rating, Ragweed [11, 21]: 20; Ragweed plant response rating (0 to 100 scale, 0 is no effect, 100 is complete control) ([11]; Preemergence): 70; Plant response rating, Barnyardgrass [12, 21]: 90; Plant response rating, Pigweed [13, 21]: 70; Plant response rating, Kochia (Kochia (Kochia scoparia) [14]; [21]): 50; Plant response rating, Foxtail, Giant [15, 21]: 90; Plant response rating, Ryegrass, Italian [16, 21]: 0; Plant response rating, Ducksalad [19]: 75; Plant response rating, Rice (rice (Oryra sativa)): 0"
Cc1ccc(C2CN(C)C(=O)C2C(=O)Nc2cccc(F)c2F)cc1F (centres unmarked) [Compound 464],80,85,95,30,90,40,50,60,90,70,90,70,60,90,70,80,90,90,70,0,"Plant response rating, Johnsongrass ([1]; 31 g ai/ha): 35; Plant response rating, Ragweed [2, 20]: 30; Plant response rating, Barnyardgrass [3, 20]: 90; Plant response rating, Pigweed [4, 20]: 50; Plant response rating, Kochia (Kochia (Kochia scoparia) [5]; [20]): 60; Plant response rating, Galium [6, 20]: 70; Plant response rating, Foxtail, Giant [7, 20]: 90; Plant response rating, Ryegrass, Italian [8, 20]: 80; Plant response rating, Corn (corn (Zea mays); [20]): 90; Plant response rating, Wheat [9, 20]: 70; Plant response rating, Blackgrass [10, 20]: 70; Plant response rating, Ragweed [11, 21]: 50; Plant response rating, Barnyardgrass [12, 21]: 90; Plant response rating, Pigweed [13, 21]: 70; Plant response rating, Kochia (Kochia (Kochia scoparia) [14]; [21]): 70; Plant response rating, Foxtail, Giant [15, 21]: 90; Plant response rating, Ryegrass, Italian [16, 21]: 70; Plant response rating, Ducksalad [19]: 100; Plant response rating, Rice (rice (Oryra sativa)): 20"
O=C1NCC(c2cc(F)cc(Cl)c2)C1C(=O)Nc1cccc(F)c1F (centres unmarked) [Compound 492],55,80,90,30,90,40,40,50,90,20,70,20,50,90,70,70,90,50,65,0,"Plant response rating (scale of 0 to 100), Johnsongrass ([1]; 31 g ai/ha, 0 is no effect, 100 is complete control): 20; Plant response rating, Ragweed [2, 22]: 70; Plant response rating, Barnyardgrass [3, 22]: 90; Plant response rating, Pigweed [4, 22]: 60; Plant response rating, Kochia (Kochia (Kochia scoparia) [5]; [22]): 60; Plant response rating, Galium [6, 22]: 60; Plant response rating, Foxtail, Giant [7, 22]: 90; Plant response rating, Ryegrass, Italian [8, 22]: 50; Plant response rating, Corn (corn (Zea mays); [22]): 80; Plant response rating, Wheat [9, 22]: 60; Plant response rating, Blackgrass [10, 22]: 70; Plant response rating, Ragweed [11, 23]: 30; Ragweed plant response rating (0 to 100 scale, 0 is no effect, 100 is complete control) ([11]; Preemergence): 80; Plant response rating, Barnyardgrass [12, 23]: 90; Plant response rating, Pigweed [13, 23]: 0; Plant response rating, Kochia (Kochia (Kochia scoparia) [14]; [23]): 60; Plant response rating, Foxtail, Giant [15, 23]: 90; Plant response rating, Ryegrass, Italian [16, 23]: 50; Plant response rating, Ducksalad [19]: 100; Plant response rating, Rice (rice (Oryra sativa)): 25"
